Measured values reported in patent US10167282B2, “1-(5-tert-butyl-2-aryl-pyrazol-3-yl)-3-[2-fluoro-4-[(3-oxo-4H-pyrido [2, 3-B]pyrazin- 8-yl)oxy]phenyl]urea derivatives as RAF inhibitors for the treatment of cancer” (CANCER RESEARCH TECHNOLOGY LIMITED, priority 2013, dated 2019).
Read-outs that look alike come from different tables or passages of the source.

Key:
hERG = assay type: cell-based, human; settings: read-out: hERG Inhibition IC50
Protocol: Studies were conducted at Cyprotex Discovery in Cheshire, UK according to the contractor's protocol. The studies were performed on an IonWorks™ HT instrument (Molecular Devices Corporation), which automatically performs electrophysiology measurements in […] single cells simultaneously in a specialised 384-well plate (PatchPlate™). The cells used were Chinese hamster ovary (CHO) cells stably transfected with hERG (cell-line obtained from Cytomyx, UK). A single-cell suspension was prepared in extracellular solution (Dulbecco's phosphate buffered saline with calcium and magnesium pH 7-7.2) and aliquots added automatically to each well of a PatchPlate™. The cells were then positioned over a small hole at the bottom of each well by applying a vacuum beneath the plate to form an electrical seal. The vacuum was applied through a single compartment common to all wells which was filled with intracellular solution (buffered to pH 7.2 with HEPES). The resistance of each seal was measured via a common ground-electrode in the intracellular compartment and individual electrodes placed into each of the upper wells.
Electrical access to the cell was then achieved by circulating a perforating agent, amphotericin, underneath the PatchPlate™ and then measuring the pre-compound hERG current. An electrode was positioned in the extracellular compartment and a holding potential of −80 mV applied for 15 seconds. The hERG channels were then activated by applying a depolarising step to +40 mV for 5 seconds and then clamped at −50 mV for 4 seconds to elicit the hERG tail current, before returning to −80 mV for 0.3 seconds. […]. Quinidine, an established hERG inhibitor, was included as an experimental control. […]. The test compound was left in contact with the cells for 300 seconds before recording currents using the same voltage-step protocol as in the pre-compound scan. Each concentration was tested in 4 replicate wells.
Post-compound currents were expressed as a percentage of pre-compound currents and plotted against concentration for each compound. Where concentration-dependent inhibition was observed, the data were fitted to the following equation: y=(ymax−ymin)/(1+(x/x50)^s)+ymin.
y=(post-compound current/pre-compound current)×100;
x50=concentration required to inhibit current by 50% (IC50); and […]

V600EBRAF = experiment: DELFIA kinase assay (BRAF V600E Kinase Assay); assay type: biochemical, human; settings: for IC50: 100 μM ATP
Protocol: Compounds were assessed in a kinase assay performed according to the following protocol.
^V600EBRAF was generated by infection of SF9 insect cells cultured in SF-900 II medium (Invitrogen, Paisley, Scotland) with a baculovirus containing full-length human BRAF with an N-terminal histidine tag and purified by nickel-agarose affinity chromatography.
Full-length rabbit MEK1 protein was expressed with a GST tag at the N-terminus and a C-terminal histidine tag in Escherichia coli JM109 bacteria and purified by nickel-agarose affinity chromatography.
Combine 4950 μL of DKB and 50 μL of 2.5 mg/mL GST-MEK stock obtained as described above (to give […] of MEK per 40 μL). Then add 22.5 μL of BRAF stock obtained as described above to give ˜0.2 μL of BRAF per 40 μL.
100 mM ATP stock in distilled water, dilute to 500 μM to give 100 μM final concentration in assay.
3. Plate out 40 μL of DKB1 for all inhibitors (test compounds), DMSO control, and optionally other control compounds.
5. Add inhibitors (test compounds) at 0.5 μL per well according to desired plate layout.
8. Pre-incubate with test compounds for 10 minutes at room temperature with shaking.
9. Add 10 μL of 500 μM ATP stock, in DKB, to give 100 μM assay concentration.
10. Seal plates with TopSeal and incubate at room temperature with shaking for 45 minutes.
12. Add 50 μL per well of antibody mix and incubate for 1 hour at room temperature with shaking.
14. Add 100 μL DELFIA enhancement solution per well, cover in foil, and incubate at room temperature for 30 minutes with shaking.
15. Read on Victor plate reader (Perkin-Elmer, Turku, Finland) using Europium protocol.
Values for the blank (Empty Vector) are subtracted from all values. The DMSO controls are set as 100% activity and assay points (the response) are calculated as a percentage of the DMSO control. Data are plotted using Graphpad Prism software and a non-linear regression line is calculated using a variable slope sigmoidal dose-response equation: Y=Bottom+[Top−Bottom]/[1+10^((Log EC50−X)*HillSlope)] where X is the logarithm of concentration and Y is the response. The IC50 generated by this procedure is the concentration of the drug that produces a percentage control fluorescence value midway between the saturation, and zero-effect plateaus. Three independent assays are usually performed and the mean IC50 is reported.

[1] = tested on: mutant BRAF WM266.4 cells; experiment: Cell based phospho-ERK assay; settings: Homo sapiens, WM 266-4, 6 h, read-out: Cell-Based Phospho-ERK Assay IC50
Protocol: Cell Based Phospho-ERK Assay (Mutant BRAF WM266.4 Cells)
Compounds were assessed using a cell-based assay which was performed according to the following protocol.
Plate out 16,000 mutant BRAF WM266.4 cells/well in 99 μL medium in a 96-well plate.
Add 1 μL test compound to the cells (total 1 μL solution).
Incubate the cells with test compound for 6 hours at 37° C.
Read Europium Time Resolved Fluorescence in Victor2 plate reader (Perkin-Elmer, Turku, Finland).
Note that Europium counts are normalised for protein levels by dividing counts by absorbance.
Values for the blank (no cells) are subtracted from all values. The DMSO controls are set as 100% activity and assay points (the response) are calculated as a percentage of the DMSO control. Data are plotted using Graphpad Prism software and a non-linear regression line is calculated using a variable slope sigmoidal dose-response equation: Y=Bottom+[Top−Bottom]/[1+10^((Log EC50−X)*HillSlope)] where X is the logarithm of concentration and Y is the response). The IC50 generated by this procedure is the concentration of the drug that produces a percentage control fluorescence value midway between the saturation, and zero-effect plateaus. Three independent assays are usually performed and the mean IC50 is reported.

Src = experiment: Z'-LYTE biochemical kinase assay; settings: ATP 100 μM
Protocol: (§1) Activity Against Other Targets
(§2) Studies were conducted at Life Technologies in Paisley according to the contractor's protocol. TBAP-01 was dissolved in DMSO and assayed at final concentrations ranging from 10 μM to 0.5 nM in 1% DMSO, in the presence of an ATP concentration of 100 μM. IC50 values for test compounds were determined using the Z'-LYTE® biochemical assay employing a fluorescence-based, coupled-enzyme format based on the differential sensitivity of phosphorylated and non-phosphorylated peptides to proteolytic cleavage.

Lck = experiment: Z'-LYTE biochemical kinase assay; settings: ATP 100 μM
Protocol: as §1, §2

MET = experiment: Z'-LYTE biochemical kinase assay; settings: ATP 100 μM
Protocol: as §1, §2

PDGFRα = experiment: Z'-LYTE biochemical kinase assay; settings: ATP 100 μM
Protocol: as §1, §2

CRAF = experiment: Z'-LYTE biochemical kinase assay; settings: ATP 100 μM
Protocol: as §1, §2

KDR = experiment: Z'-LYTE biochemical kinase assay; settings: ATP 100 μM
Protocol: as §1, §2

FGFR1 = experiment: Z'-LYTE biochemical kinase assay; settings: ATP 100 μM
Protocol: as §1, §2

PDGFRβ = experiment: Z'-LYTE biochemical kinase assay; settings: ATP 100 μM
Protocol: as §1, §2

EGFR = experiment: Z'-LYTE biochemical kinase assay; settings: ATP 100 μM
Protocol: as §1, §2

p38γ = experiment: Z'-LYTE biochemical kinase assay; settings: ATP 100 μM
Protocol: as §1, §2

p38α = experiment: Z'-LYTE biochemical kinase assay; settings: ATP 100 μM
Protocol: as §1, §2

IGF1Rβ = experiment: Kinase profiling, radioactive (33P-ATP) filter-binding assay; assay type: biochemical; settings: not stated whether inhibition or remaining activity
Protocol: as §1
(§3) Additional studies were conducted at The International Centre for Kinase Profiling in Dundee according to the contractor's protocol. TBAP-01 was dissolved in DMSO and assayed at a final concentration of 1 μM in 2% DMSO against 131 kinases. The assays were carried out using a radioactive (^33P-ATP) filter-binding assay.

TAK1 = experiment: as above; assay type: biochemical; settings: at 1 μM
Protocol: as §1, §3

Tie-2 = experiment: as above; assay type: biochemical; settings: at 1 μM
Protocol: as §1, §3

DDR2 = experiment: as above; assay type: biochemical; settings: at 1 μM
Protocol: as §1, §3

MINK1 = experiment: as above; assay type: biochemical; settings: at 1 μM
Protocol: as §1, §3

YES1 = experiment: as above; assay type: biochemical; settings: at 1 μM
Protocol: as §1, §3

TESK1 = experiment: as above; assay type: biochemical; settings: at 1 μM
Protocol: as §1, §3

TrkA = experiment: as above; assay type: biochemical; settings: at 1 μM
Protocol: as §1, §3

ABL = experiment: as above; assay type: biochemical; settings: at 1 μM
Protocol: as §1, §3

[2] = tested on: mice with collagen-induced arthritis; settings: cited from earlier work
[3] = CHO cells stably transfected with hERG, tail current

SMILES: Cc1ccc(-n2nc(C(C)(C)C)cc2NC(=O)Nc2ccc(Oc3ccnc4[nH]c(=O)cnc34)cc2F)cn1 [AA-084, reference compound]
- IC50 (hERG; [3]): 53 µM
- IC50 (V600EBRAF): 0.71 µM

SMILES: CC(C)(C)c1cc(NC(=O)Nc2ccc(Oc3ccnc4[nH]c(=O)cnc34)cc2F)n(-c2ccccc2)n1 [AA-019, reference compound]
- IC50 (hERG; [3]): > 100 µM
- IC50 (V600EBRAF): 0.055 µM

SMILES: COc1cccc(-n2nc(C(C)(C)C)cc2NC(=O)Nc2ccc(Oc3ccnc4[nH]c(=O)cnc34)cc2F)c1 [TBAP-04, 1-(3-tert-butyl-1-(3-methoxyphenyl)-1H-pyrazol-5-yl)-3-(2-fluoro-4-(3-oxo-3,4-dihydropyrido[3,2-b]pyrazin-8-yloxy)phenyl)urea]
- IC50 (hERG; [3]): > 100 µM
- IC50 (V600EBRAF): 0.047 µM

SMILES: CC(C)(C)c1cc(NC(=O)Nc2ccc(Oc3ccnc4[nH]c(=O)cnc34)cc2F)n(-c2cccc(C(F)(F)F)c2)n1 [TBAP-03]
- IC50 (hERG; [3]): > 100 µM
- IC50 (V600EBRAF): 0.13 µM

SMILES: CC(C)(C)c1cc(NC(=O)Nc2ccc(Oc3ccnc4[nH]c(=O)cnc34)cc2F)n(-c2ccnc(O)c2)n1 [TBAP-05, 1-(3-tert-butyl-1-(2-oxo-1,2-dihydropyridin-4-yl)-1H-pyrazol-5-yl)-3-(2-fluoro-4-(3-oxo-3,4-dihydropyrido[3,2-b]pyrazin-8-yloxy)phenyl)urea]
- IC50 [1]: 0.45 µM
- IC50 (V600EBRAF): 0.39 µM

SMILES: Cn1c(=O)[nH]c2nccc(Oc3ccc(NC(=O)Nc4cc(C(C)(C)C)nn4-c4cccc(F)c4)c(F)c3)c21 [AA-04, reference compound]
- IC50 (V600EBRAF): 0.65 µM

SMILES: CC(C)(C)c1cc(NC(=O)Nc2ccc(Oc3ccnc4[nH]c(=O)cnc34)cc2F)n(-c2cccc(F)c2)n1 [TBAP-01]
- IC50 (Src): 0.027 µM
- IC50 (Lck): 0.019 µM
- IC50 (MET): 1.4 µM
- IC50 (PDGFRα): 0.8 µM
- IC50 (CRAF): 0.033 µM
- IC50 (KDR): 0.12 µM
- IC50 (FGFR1): 0.47 µM
- IC50 (PDGFRβ): 0.74 µM
- IC50 (EGFR): 1.9 µM
- IC50 (p38γ): 0.22 µM
- IC50 (p38α): 0.47 µM
- IC50 (hERG; [3]): > 100 µM
- fold more potent than Compound AA-04 on the BRAF kinase assay (V600EBRAF): 10 fold
- IC50 (V600EBRAF): 0.062 µM
- fold more potent than Compound AA-084 on the BRAF kinase assay (V600EBRAF; vs AA-084): 11 fold
- IGF1Rβ % @ 1 μM (IGF1Rβ): 78% @ 1
- TAK1 activity remaining (TAK1): 6% activity remaining at 1 μM
- Tie-2 activity remaining (Tie-2): 3% activity remaining at 1 μM
- DDR2 activity remaining (DDR2): 3% activity remaining at 1 μM
- MINK1 activity remaining (MINK1): 4% activity remaining at 1 μM
- YES1 activity remaining (YES1): 6% activity remaining at 1 μM
- TESK1 activity remaining (TESK1): 5% activity remaining at 1 μM
- TrkA activity remaining (TrkA): 6% activity remaining at 1 μM
- ABL activity remaining (ABL): 4% activity remaining at 1 μM

SMILES: Cc1cccc(-n2nc(C(C)(C)C)cc2NC(=O)Nc2ccc(Oc3ccnc4[nH]c(=O)cnc34)cc2F)c1 [TBAP-02]
- IC50 (hERG): 65 µM
- IC50 (V600EBRAF): 0.099 µM

SMILES: Cc1ccc(-n2nc(C(C)(C)C)cc2NC(=O)Nc2ccc(Oc3ccnc4[nH]c(=O)cnc34)cc2F)cc1 [AA-018, reference compound]
- IC50 (hERG; [3]): > 100 µM
- IC50 (V600EBRAF): 0.064 µM

SMILES: COc1ccc(-n2nc(C(C)(C)C)cc2NC(=O)Nc2ccc(Oc3ccnc4[nH]c(=O)cnc34)cc2F)cn1 [AA-062, reference compound]
- IC50 (hERG; [3]): > 100 µM
- IC50 (V600EBRAF): 0.079 µM

SMILES: Clc1ccc(Nc2nnc(Cc3ccncc3)c3ccccc23)cc1 [PTK787/ZK222584]
- inhibition of knee swelling [2]: 40%
- inhibition of severity scores [2]: 51%
